Source: patent publication US12662491B2 (Redona Therapeutics, Inc., priority 2020, dated 2026)
pIC50: −log10 of the molar value.

molecular target: T1, Zcchc11 enzyme (Homo sapiens, UniProt Q5TAX3); test: TUTase assay (Zcchc11 assay, Lin28a-dependent polyuridylation of pre-let-7); assay type: biochemical; conditions: Lin28a-dependent Zcchc11 (Z11) TUTase assay; read-out: Potency Lin28a-dep Z11 IC50
T1 construct: made in house; host or cells: HEK293 cells (Zcchc11); E. coli Rosetta II (LIN28A)
T1 sequence (Q5TAX3 212-1420): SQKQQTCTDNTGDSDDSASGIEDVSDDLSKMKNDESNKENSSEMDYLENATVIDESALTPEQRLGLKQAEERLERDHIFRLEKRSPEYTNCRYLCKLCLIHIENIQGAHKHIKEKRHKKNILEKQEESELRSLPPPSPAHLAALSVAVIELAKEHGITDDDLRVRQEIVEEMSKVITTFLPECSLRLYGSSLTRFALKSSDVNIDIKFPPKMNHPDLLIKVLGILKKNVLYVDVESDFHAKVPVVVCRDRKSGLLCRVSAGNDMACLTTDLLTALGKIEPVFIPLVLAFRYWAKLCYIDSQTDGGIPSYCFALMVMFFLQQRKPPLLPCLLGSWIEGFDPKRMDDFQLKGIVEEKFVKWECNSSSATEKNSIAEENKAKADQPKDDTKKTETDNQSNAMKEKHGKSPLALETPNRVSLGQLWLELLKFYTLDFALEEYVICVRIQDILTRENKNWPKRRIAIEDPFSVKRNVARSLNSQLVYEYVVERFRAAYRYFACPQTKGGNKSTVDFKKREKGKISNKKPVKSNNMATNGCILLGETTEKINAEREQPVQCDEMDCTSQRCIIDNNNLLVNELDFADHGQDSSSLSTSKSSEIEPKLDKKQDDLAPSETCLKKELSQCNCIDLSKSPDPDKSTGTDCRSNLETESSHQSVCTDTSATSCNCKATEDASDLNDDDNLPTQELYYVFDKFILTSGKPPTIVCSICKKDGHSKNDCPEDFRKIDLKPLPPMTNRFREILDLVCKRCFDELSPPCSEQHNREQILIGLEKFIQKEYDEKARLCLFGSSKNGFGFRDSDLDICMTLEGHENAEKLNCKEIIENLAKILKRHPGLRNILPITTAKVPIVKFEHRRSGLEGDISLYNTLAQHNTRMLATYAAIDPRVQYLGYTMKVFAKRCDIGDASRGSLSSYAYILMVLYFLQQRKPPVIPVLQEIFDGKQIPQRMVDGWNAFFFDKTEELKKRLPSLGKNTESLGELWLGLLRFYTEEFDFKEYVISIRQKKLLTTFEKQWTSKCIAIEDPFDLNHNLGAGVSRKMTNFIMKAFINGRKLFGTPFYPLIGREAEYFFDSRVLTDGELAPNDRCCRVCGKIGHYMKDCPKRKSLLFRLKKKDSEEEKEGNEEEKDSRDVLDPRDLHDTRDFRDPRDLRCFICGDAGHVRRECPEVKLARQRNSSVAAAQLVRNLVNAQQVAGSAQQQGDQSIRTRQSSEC
In short: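 Potency is measured as inhibition of LIN28A-driven U-tail addition to 2 nM pre-let-7 by 0.2 nM HEK293-derived Zcchc11 fragment with 5 uM UTP at room temperature. Tail growth appears as fluorescein quenching by an annealing rhodamine-A20 probe.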

pIC50, ≥ 6.00:
CN(C)C1CN(c2ccc(-n3cc(C(=O)O)c(=O)c4cc(Cl)c(N5CCC[C@@H]5COc5nc(OC6CC6)ccc5Cl)cc43)cn2)C1 [Example 624, (R)-6-chloro-7-(2-(((3-chloro-6-cyclopropoxy-pyridin-2-yl)oxy)methyl)pyrrolidin-1-yl)-1-(6-(3-(dimethylamino)azetidin-1-yl)pyridin-3-yl)-4-oxo-1,4-dihydroquinoline-3-carboxylic acid]
COc1ccc(Cl)c(OC[C@H]2CC(C)CN2c2cc3c(cc2Cl)c(=O)c(C(=O)O)cn3-c2ccc(N3CC(N(C)C)C3)nc2)n1 (stereo partly drawn) [Example 625, 6-chloro-7-((2R)-2-(((3-chloro-6-methoxypyridin-2-yl)oxy)methyl)-4-methylpyrrolidin-1-yl)-1-(6-(3-(dimethylamino)azetidin-1-yl)pyridin-3-yl)-4-oxo-1,4-dihydroquinoline-3-carboxylic acid]
CN1CC(c2ccc(-n3cc(C(=O)O)c(=O)c4cc(Cl)c(N5CCC[C@@H]5COc5ncccc5Cl)cc43)cn2)C1 [Example 626, (R)-6-chloro-7-(2-(((3-chloropyridin-2-yl)oxy)methyl)pyrrolidin-1-yl)-1-(6-(1-methyl-azetidin-3-yl)pyridin-3-yl)-4-oxo-1,4-dihydroquinoline-3-carboxylic acid]
CN(C)C1CN(c2ccc(-n3cc(C(=O)O)c(=O)c4cc(Cl)c(N5CCC[C@]5(C)COc5ncccc5Cl)cc43)cn2)C1 [Example 627, (R)-6-chloro-7-(2-(((3-chloropyridin-2-yl)oxy)methyl)-2-methylpyrrolidin-1-yl)-1-(6-(3-(dimethylamino)azetidin-1-yl)pyridin-3-yl)-4-oxo-1,4-dihydroquinoline-3-carboxylic acid]
CN(C)C1CN(c2ccc(-n3cc(C(=O)O)c(=O)c4cc(Cl)c(N5C6CC6C[C@@H]5COc5ncccc5Cl)cc43)cn2)C1 (stereo partly drawn) [Example 628, 6-chloro-7-((3R)-3-(((3-chloropyridin-2-yl)oxy)methyl)-2-azabicyclo[3.1.0]hexan-2-yl)-1-(6-(3-(dimethylamino)azetidin-1-yl)pyridin-3-yl)-4-oxo-1,4-dihydroquinoline-3-carboxylic acid]
COc1cnc(OC[C@H]2CCCN2c2cc3c(cc2Cl)c(=O)c(C(=O)O)cn3-c2ccc(N3CC(N(C)C)C3)nc2)c(Cl)c1 [Example 629, (R)-6-chloro-7-(2-(((3-chloro-5-methoxypyridin-2-yl)oxy)methyl)pyrrolidin-1-yl)-1-(6-(3-(dimethylamino)aztidin-1-yl)pyridin-3-yl)-4-oxo-1,4-dihydroquinoline-3-carboxylic acid]
CN(C)C1CN(c2ccc(-n3cc(C(=O)O)c(=O)c4cc(F)c(N5CCC[C@@]5(C)COc5ncccc5Cl)nc43)cn2)C1 [Example 630, (S)-7-(2-(((3-chloropyridin-2-yl)oxy)methyl)-2-methylpyrrolidin-1-yl)-1-(6-(3-(dimethylamino)azetidin-1-yl)pyridin-3-yl)-6-fluoro-4-oxo-1,4-dihydro-1,8-naphthyridine-3-carboxylic acid]
[N-]=[N+]=Nc1ccc(-n2cc(C(=O)O)c(=O)c3cc(Cl)c(N4CCC[C@@H]4COc4ncccc4Cl)cc32)cn1 [Example 631, (R)-1-(6-azidopyridin-3-yl)-6-chloro-7-(2-(((3-chloropyridin-2-yl)oxy)methyl)pyrrolidin-1-yl)-4-oxo-1,4-dihydroquinoline-3-carboxylic acid]
Cc1cc2c(=O)c(C(=O)O)cn(-c3ccc(N4CC(N(C)C)C4)nc3)c2nc1N1CCC[C@@H]1COc1ncccc1Cl [Example 633, (R)-7-(2-(((3-chloropyridin-2-yl)oxy)methyl)pyrrolidin-1-yl)-1-(6-(3-(dimethylamino)azetidin-1-yl)pyridin-3-yl)-6-methyl-4-oxo-1,4-dihydro-1,8-naphthyridine-3-carboxylic acid]
CN(C)C1CN(c2ccc(-n3cc(C(=O)O)c(=O)c4cc(F)c(N5CCC[C@]5(C)COc5ncccc5Cl)c(F)c43)cn2)C1 [Example 634, (R)-7-(2-(((3-chloropyridin-2-yl)oxy)methyl)-2-methylpyrrolidin-1-yl)-1-(6-(3-(dimethylamino)azetidin-1-yl)pyridin-3-yl)-6,8-difluoro-4-oxo-1,4-dihydroquinoline-3-carboxylic acid]
CN(C)C1CN(c2ccc(-n3cc(C(=O)O)c(=O)c4cc(Cl)c(N5CCC6CC65COc5ncccc5Cl)cc43)cn2)C1 (stereo not drawn) [Example 635, 6-chloro-7-(1-(((3-chloropyridin-2-yl)oxy)methyl)-2-azabicyclo[3.1.0]hexan-2-yl)-1-(6-(3-(dimethylamino)azetidin-1-yl)pyridin-3-yl)-4-oxo-1,4-dihydroquinoline-3-carboxylic acid]
COc1ccc(C2C[C@H](COc3nc(OC)ccc3Cl)N(c3cc4c(cc3Cl)c(=O)c(C(=O)O)cn4-c3ccc(N4CC(N(C)C)C4)nc3)C2)cn1 (stereo partly drawn) [Example 636, 6-chloro-7-((2R)-2-(((3-chloro-6-methoxypyridin-2-yl)oxy)methyl)-4-(6-methoxypyridin-3-yl)pyrrolidin-1-yl)-1-(6-(3-(dimethylamino)azetidin-1-yl)pyridin-3-yl)-4-oxo-1,4-dihydroquinoline-3-carboxylic acid]
COc1ccc(Cl)c(OC[C@H]2C[C@H](NC(C)=O)CN2c2cc3c(cc2Cl)c(=O)c(C(=O)O)cn3-c2ccc(N3CC(N(C)C)C3)nc2)n1 [Example 637, 6-chloro-7-[(2R)-2-{[(3-chloro-6-methoxypyridin-2-yl)oxy]methyl}-4-acetamido-pyrrolidin-1-yl]-1-{6-[3-(dimethylamino)azetidin-1-yl]pyridin-3-yl}-4-oxo-1,4-dihydroquinoline-3-carboxylic acid]
O=C(O)c1cn(-c2cnccn2)c2cc(N3CC(F)(F)C[C@@H]3COc3ncccc3Cl)c(Cl)cc2c1=O [Example 638, (R)-6-chloro-7-(2-(((3-chloropyridin-2-yl)oxy)methyl)-4,4-difluoropyrrolidin-1-yl)-4-oxo-1-(pyrazin-2-yl)-1,4-dihydroquinoline-3-carboxylic acid]
CN(C)C1CN(c2ccc(-n3cc(C(=O)O)c(=O)c4cc(Cl)c(N5CCC[C@@]5(C)COc5ncccc5Cl)cc43)cn2)C1 [Example 639, (S)-6-chloro-7-(2-(((3-chloropyridin-2-yl)oxy)methyl)-2-methylpyrrolidin-1-yl)-1-(6-(3-(dimethylamino)azetidin-1-yl)pyridin-3-yl)-4-oxo-1,4-dihydroquinoline-3-carboxylic acid]
COc1ccc(Cl)c(OC[C@H]2C[C@@H](O)CN2c2cc3c(cc2Cl)c(=O)c(C(=O)O)cn3-c2ccc(N3CC(N(C)C)C3)nc2)n1 [Example 641, 6-chloro-7-((2R,4R)-2-(((3-chloro-6-methoxypyridin-2-yl)oxy)methyl)-4-hydroxypyrrolidin-1-yl)-1-(6-(3-(dimethylamino)azetidin-1-yl)pyridin-3-yl)-4-oxo-1,4-dihydroquinoline-3-carboxylic acid]
COc1ccc(Cl)c(OC[C@H]2CC(N3CCCC3=O)CN2c2cc3c(cc2Cl)c(=O)c(C(=O)O)cn3-c2ccc(N3CC(N(C)C)C3)nc2)n1 (stereo partly drawn) [Example 642, 6-chloro-7-((5′R)-5′-(((3-chloro-6-methoxypyridin-2-yl)oxy)methyl)-2-oxo-[1,3′-bipyrrolidin]-1-yl)-1-(6-(3-(dimethylamino)azetidin-1-yl)pyridin-3-yl)-4-oxo-1,4-dihydroquinoline-3-carboxylic acid]
COc1ccc(Cl)c(OC[C@H]2CC(C)(O)CN2c2cc3c(cc2Cl)c(=O)c(C(=O)O)cn3-c2ccc(N3CC(N(C)C)C3)nc2)n1 (stereo partly drawn) [Example 643, 6-chloro-7-((2R)-2-(((3-chloro-6-methoxypyridin-2-yl)oxy)methyl)-4-hydroxy-4-methylpyrrolidin-1-yl)-1-(6-(3-(dimethylamino)azetidin-1-yl)pyridin-3-yl)-4-oxo-1,4-dihydroquinoline-3-carboxylic acid]
